Assay type in all cases: ADME, cell-based
The test system of data set [1] is MCF7. Description: Cellular uptake in human MCF7 cells assessed as labeled cells at 1 uM after 24 hrs by flow cytometry. As to conditions: mcf7, 24 h. A general note: In flow cytometry, cells or beads pass a laser one at a time; call rule not given here.
In data set [2] the test system is HEK293. Description: Cellular uptake in HEK293 cells assessed as localization to nucleus at 1 uM after 24 hrs by fluorescence microscopy. The conditions noted are these: human, hek293, 24 h.
Data set [3] deals with MCF7. Description: Cellular uptake in human MCF7 cells assessed as increase in labeled cells at 1 uM after 24 hrs by flow cytometry. The conditions noted are these: mcf7, 24 h.
The subject of data set [4] is HEK293. Description: Cellular uptake in HEK293 cells assessed as labeled cells at 1 uM after 24 hrs by flow cytometry. As to conditions: human, hek293, 24 h.
Data set [5] concerns HEK293. Description: Cellular uptake in HEK293 cells assessed as localization to cytoplasm at 1 uM after 24 hrs by fluorescence microscopy. The conditions noted are these: human, hek293, 24 h.
Data set [6] concerns HEK293. The data set can be described thus: Cellular uptake in HEK293 cells assessed as intracellular localization at 1 uM after 24 hrs by fluorescence microscopy. As to conditions: human, hek293, 24 h.

In the case of `CN(C)CCCNC(=O)c1cc(NC(=O)c2cc(NC(=O)c3cc(NC(=O)CCCNC(=O)c4cc(NC(=O)c5cc(NC(=O)c6cc(NC(=O)CCNC(=S)Nc7ccc(-c8c9ccc(=O)cc-9oc9cc(O)ccc89)c(C(=O)O)c7)cn6C)cn5C)cn4C)cn3C)cn2C)cn1C`, the Drug uptake in the data set with MCF7 [1] is over 90%.

Turning to `CN(C)CCCNC(=O)c1nc(NC(=O)c2nc(NC(=O)c3nc(NC(=O)CCNc4nc(NC(=O)c5nc(NC(=O)c6nc(NC(=O)CCNC(=S)Nc7ccc(-c8c9ccc(=O)cc-9oc9cc(O)ccc89)c(C(=O)O)c7)cn6C)cn5C)cn4C)cn3C)cn2C)cn1C`, the values for the Drug uptake result in the data set on HEK293 [2], in the data set with MCF7 [3] and in the data set with HEK293 [4] were “Not Active”, “Not Active” and 39%, respectively.

With `CN(C)CCCNC(=O)c1nc(NC(=O)c2nc(NC(=O)c3nc(NC(=O)CCNC(=S)Nc4ccc(-c5c6ccc(=O)cc-6oc6cc(O)ccc56)c(C(=O)O)c4)cn3C)cn2C)cn1C`, the Drug uptake in the data set with HEK293 [4] turned out to be 53%.

With `CN(C)CCCNC(=O)c1nc(NC(=O)c2nc(NC(=O)c3nc(NC(=O)CCNc4nc(NC(=O)c5nc(NC(=O)c6nc(NC(=O)CCNc7nc(NC(=O)c8nc(NC(=O)c9nc(NC(=O)CCNC(=S)Nc%10ccc(-c%11c%12ccc(=O)cc-%12oc%12cc(O)ccc%11%12)c(C(=O)O)c%10)cn9C)cn8C)cn7C)cn6C)cn5C)cn4C)cn3C)cn2C)cn1C`, in the data set on HEK293 [4], the Drug uptake is listed as 3%.

As for `CN(C)CCCNC(=O)c1cc(NC(=O)c2cc(NC(=O)c3cc(NC(=O)CCNc4cc(NC(=O)c5cc(NC(=O)c6cc(NC(=O)CCNc7cc(NC(=O)c8cc(NC(=O)c9cc(NC(=O)CCNc%10cc(NC(=O)c%11cc(NC(=O)c%12cc(NC(=O)CCNc%13cc(NC(=O)c%14cc(NC(=O)c%15cc(NC(=O)CCNC(=S)Nc%16ccc(-c%17c%18ccc(=O)cc-%18oc%18cc(O)ccc%17%18)c(C(=O)O)c%16)cn%15C)cn%14C)cn%13C)cn%12C)cn%11C)cn%10C)cn9C)cn8C)cn7C)cn6C)cn5C)cn4C)cn3C)cn2C)cn1C`, the results for the Drug uptake entry in the data set on HEK293 [5] and in the data set on HEK293 [4] were “Active” and over 82%, respectively.

As to `CN(C)CCCNC(=O)c1cc(NC(=O)c2cc(NC(=O)c3cc(NC(=O)CCNc4cc(NC(=O)c5cc(NC(=O)c6cc(NC(=O)CCNc7cc(NC(=O)c8cc(NC(=O)c9cc(NC(=O)CCNC(=S)Nc%10ccc(-c%11c%12ccc(=O)cc-%12oc%12cc(O)ccc%11%12)c(C(=O)O)c%10)cn9C)cn8C)cn7C)cn6C)cn5C)cn4C)cn3C)cn2C)cn1C`, the Drug uptake entry was “Active” with HEK293 [2] and over 82% in the data set with HEK293 [4].

Turning to `CN(C)CCCNC(=O)c1nc(NC(=O)c2nc(NC(=O)c3nc(NC(=O)CCNc4nc(NC(=O)c5nc(NC(=O)c6nc(NC(=O)CCNc7nc(NC(=O)c8nc(NC(=O)c9nc(NC(=O)CCNc%10nc(NC(=O)c%11nc(NC(=O)c%12nc(NC(=O)CCNC(=S)Nc%13ccc(-c%14c%15ccc(=O)cc-%15oc%15cc(O)ccc%14%15)c(C(=O)O)c%13)cn%12C)cn%11C)cn%10C)cn9C)cn8C)cn7C)cn6C)cn5C)cn4C)cn3C)cn2C)cn1C`, in the data set with HEK293 [4], the Drug uptake came to 1.1%.

For the compound `CN(C)CCCNC(=O)c1cc(NC(=O)c2cc(NC(=O)c3cc(NC(=O)CCNC(=S)Nc4ccc(-c5c6ccc(=O)cc-6oc6cc(O)ccc56)c(C(=O)O)c4)cn3C)cn2C)cn1C`, the Drug uptake in the data set on HEK293 [4] is listed as 53%.

In the case of `CN(C)CCCNC(=O)c1cc(NC(=O)c2cc(NC(=O)c3cc(NC(=O)CCNc4cc(NC(=O)c5cc(NC(=O)c6cc(NC(=O)CCNC(=S)Nc7ccc(-c8c9ccc(=O)cc-9oc9cc(O)ccc89)c(C(=O)O)c7)cn6C)cn5C)cn4C)cn3C)cn2C)cn1C`, the Drug uptake result in the data set on HEK293 [2] was “Active”; in the data set on MCF7 [3] it was “Active”; in the data set on HEK293 [4], over 82%.

Regarding `CN(C)CCCNC(=O)c1cc(NC(=O)c2cc(NC(=O)c3cc(NC(=O)CCNc4cc(NC(=O)c5cc(NC(=O)c6cc(NC(=O)CCNc7cc(NC(=O)c8cc(NC(=O)c9cc(NC(=O)CCNc%10cc(NC(=O)c%11cc(NC(=O)c%12cc(NC(=O)CCNc%13cc(NC(=O)c%14cc(NC(=O)c%15cc(NC(=O)CCNc%16cc(NC(=O)c%17cc(NC(=O)c%18cc(NC(=O)CCNC(=S)Nc%19ccc(-c%20c%21ccc(=O)cc-%21oc%21cc(O)ccc%20%21)c(C(=O)O)c%19)cn%18C)cn%17C)cn%16C)cn%15C)cn%14C)cn%13C)cn%12C)cn%11C)cn%10C)cn9C)cn8C)cn7C)cn6C)cn5C)cn4C)cn3C)cn2C)cn1C`, the Drug uptake entry in the data set on HEK293 [5] is recorded as “Active”; with HEK293 [4], over 82%; in the data set on HEK293 [6], “Active”.

For `CN(C)CCCNC(=O)c1cc(NC(=O)c2cc(NC(=O)c3cc(NC(=O)CCNc4cc(NC(=O)c5cc(NC(=O)c6cc(NC(=O)CCNc7cc(NC(=O)c8cc(NC(=O)c9cc(NC(=O)CCNc%10cc(NC(=O)c%11cc(NC(=O)c%12cc(NC(=O)CCNC(=S)Nc%13ccc(-c%14c%15ccc(=O)cc-%15oc%15cc(O)ccc%14%15)c(C(=O)O)c%13)cn%12C)cn%11C)cn%10C)cn9C)cn8C)cn7C)cn6C)cn5C)cn4C)cn3C)cn2C)cn1C`, the Drug uptake in the data set on HEK293 [4] is on record as over 82%.

(Values after ChEMBL document CHEMBL1158504, “Cell permeability of Py-Im-polyamide-fluorescein conjugates: Influence of molecular size and Py/Im content” (Bioorg Med Chem, 2010).)
